The record followed here is patent publication US9180088B2, “Fulvestrant formulations” (SCIDOSE, LLC, priority 2008, dated 2015).

A word on the solubility: it is the dissolved amount per volume that the medium holds.

A short description of series [1]: solubility of fulvestrant in solvents. The format is physicochemical.
For series [2], the system named is subplanar paw of the rat. The series can be described thus: rat paw lick test. The following applies: 0.1 ml of solvent system injected on the subplanar paw of the rat. The series is classed as in vivo. On the procedure:
In this method 0.1 ml of the solvent system is injected on the subplanar paw of the rat and the irritation is measured by the number of time that rat licks its paw over 15 minutes. This is quite quantitative and the number licks correlate to the irritation of the system.

In brackets after ≈: the same amount, converted by molar mass.

`C[C@]12CC[C@@H]3c4ccc(O)cc4C[C@@H](CCCCCCCCC[S+]([O-])CCCC(F)(F)C(F)(F)F)[C@H]3[C@@H]1CC[C@@H]2O` (stereo partly drawn) [fulvestrant, 7-alpha-[9-(4,4,5,5,5-pentafluoropentylsulphinyl)nonyl]estra-1,3,5-(10)-triene-3,17-beta-diol]: the solubility in series [1] (20 mg/ml Lutrol in PEG 400 (2% Lutrol in PEG 400), organic solvent or mixture, in 20 mg/ml of Lutrol in PEG 400 (2% Lutrol in PEG 400)) is 66.7 mg/mL (≈ 110 mM); in series [1] (20 mg/ml Lutrol in propylene glycol, organic solvent or mixture, in 20 mg/ml of Lutrol in PG) it was 22.7 mg/mL (≈ 37.4 mM); in series [1] (1,4-dioxane, organic solvent or mixture, in 1,4 Dioxan), 833 mg/mL (≈ 1370 mM); in series [1] (10% ethanol/0.9% benzyl alcohol/30% PEG 400 in water (v/v), aqueous with cosolvent or surfactant or cyclodextrin, in 10% Ethanol/0.9% Benzylalcohol/30% PEG 400 in Water (v/v)) it was 10 mg/mL (≈ 16.5 mM); in series [1] (20-50 mg/ml Lutrol in dihydrolipoic acid, organic solvent or mixture, in 20-50 mg/ml Lutrol in dihydrolipoic acid), more than 350 mg/mL; in series [1] (50% dihydrolipoic acid/50% lipoic acid, organic solvent or mixture, in 50% dihydrolipoic acid/50% lipoic acid) it was more than 350 mg/mL. Moreover, the solubility in series [1] (Lutrol/PEG400/propylene glycol blends, organic solvent or mixture, in the Lutrol/PEG400/propylene glycol blends) was 50 mg/mL (≈ 82.4 mM); in series [1] (N-methylpyrrolidone, organic solvent or mixture, in N-Methylpyrrolidone) it was 864 mg/mL (≈ 1420 mM); in series [1] (PEG 400 + propylene glycol (1:1), organic solvent or mixture, in PEG 400 + PG (1:1)), 50 mg/mL; in series [1] (PEG-400 (neat), organic solvent or mixture, in PEG-400 (neat)) it was 22.5 mg/mL (≈ 37.1 mM); in series [1] (aqueous with cosolvent or surfactant or cyclodextrin, in 10% Ethanol/0.9% Benzylalcohol/30% PEG 400/20 mg per ml Lecithin, in Water), 5 mg/mL (≈ 8.24 mM); in series [1] (dihydrolipoic acid, organic solvent or mixture, in Dihydrolipoic acid) it was more than 450 mg/mL. Moreover, the solubility in series [1] (ethyl acetate, organic solvent or mixture, in Ethyl acetate) came out at 7.8 mg/mL (≈ 12.9 mM); in series [1] (glycofurol, organic solvent or mixture, in Glycofurol), 400 mg/mL (≈ 659 mM); in series [1] (organic solvent or mixture, in 0.7 ml of (20 mg/ml of Lutrol in PEG 400) + 0.3 ml of Propylene Glycol), 50 mg/mL; in series [1] (organic solvent or mixture, in 0.8 ml of (20 mg/ml of Lutrol in PEG 400) + 0.2 ml of Propylene Glycol), 50 mg/mL; in series [1] (organic solvent or mixture, in 10% Ethanol/0.9% Benzylalcohol in PEG 400 (V/V, QS with PEG 400)), 10 mg/mL (≈ 16.5 mM); in series [1] (propylene glycol (neat), organic solvent or mixture, in Propylene Glycol (neat)), 4 mg/mL (≈ 6.59 mM). For the same molecule, the solubility in series [1] (t-butanol, organic solvent or mixture, in T-butanol) was determined as 194 mg/mL (≈ 320 mM). For the same molecule, the solubility of fulvestrant result in series [1] (in 0.9% Benzyl alcohol in Water), in series [1] (in 2% Benzyl alcohol in Water), in series [1] (in 10% Ethanol), in series [1] (in 10% Ethanol (in water) + PEG 400 (1:1)), in series [1] (in 30% Ethanol (in water)) and in series [1] (in 50% Ethanol (in water)) was “Insoluble” throughout. For the same molecule, the solubility of fulvestrant entry in series [1] (in Aq.PVP K-30 solution (40 mg in 2 ml distil water)) is reported as “Insoluble”; in series [1] (in Cetylalcohol) it was 20 mg/1 g; in series [1] (in Fat emulsion), “Insoluble”; in series [1] (in Hydroxy Ethyl Starch (10%)) it was “Insoluble”; in series [1] (in Lauryl macrogol - 32 glyceride (Gelucire 44/14 by Gattefosse)), “Insoluble”; in series [1] (in Lecithin (1%)), “Insoluble”. In addition, the solubility of fulvestrant entry in series [1] (in Peanut Oil), in series [1] (in Poloxamer(Lutrol f-68) (2% sol in water)), in series [1] (in Sodium Citrate (30 Mmol)), in series [1] (in TPGS 1000), in series [1] (in Tween 20 (1%)) and in series [1] (in Tween 80 (1%)) was “Insoluble” throughout.
Turning to Glycofurol [Test # 02], in series [2], the “IRRITABILITY (rating)” value was “No Irritation”. The “number of times rat licks its paw in first 15 minutes” value in series [2] (15 minutes) is recorded as “Zero lick in first 15 minutes”.
